The values below come from the SangsterLogP compilation.

Each structure is given as a SMILES string.

The data set in a line: method code SF-HPLC, from DOI: 10.1080/01483919108049310. As to conditions: pH 8.5.
The term logD denotes the decadic logarithm of the distribution of all forms, ionised or not, between an organic phase and buffer at a given pH. As to `Cc1ccccc1Nc1c([N+](=O)[O-])c(C)nn1-c1ccccc1`, the pH-dependent lipophilicity (logD) stood at 3.8.

Compound `Cc1nn(-c2ccccc2)c(Nc2ccccc2)c1[N+](=O)[O-]` had a logD of 2.98.

With `Cc1ccc(Nc2c([N+](=O)[O-])c(C)nn2-c2ccccc2)cc1`, the log distribution coefficient (logD) was determined as 3.43.

`Cc1nn(-c2ccccc2)c(NN=Cc2ccc3c(c2[N+](=O)[O-])OCO3)c1[N+](=O)[O-]`: the log distribution coefficient (logD) amounted to 3.39.

Regarding `Cc1nn(-c2ccccc2)c(Nc2ccc(C(F)(F)F)cc2)c1[N+](=O)[O-]`, the logD was 3.89.

`Cc1cccc(Nc2c([N+](=O)[O-])c(C)nn2-c2ccccc2)c1` gave a logD of 3.25.

As to `Cc1nn(-c2ccccc2)c(Nc2ccc(Cl)cn2)c1[N+](=O)[O-]`, the logD was 3.74.

Turning to `Cc1nn(-c2ccccc2)c(Nc2ccc([N+](=O)[O-])cc2)c1[N+](=O)[O-]`, the logD amounted to 2.78.
